# Data published in paper PMC7754409 (Journal of Clinical Pharmacology, 2020).
# Where two headings read alike, the source gives them in different places.
# What was measured:
# [1] = type: in vivo, human; settings: for AUC(0-inf): human, plasma, AUCinf, GM (CV%), total AUCinf; for distribution of exposure (AUCinf, Cmax) across Child-Pugh classifications: subjects with normal NCIc, box plots Figures 2A, 3
# [2] = cited from earlier work
# [3] = any degree of HI based on Child-Pugh
# [4] = Child-Pugh mild and moderate HI
SMILES,AUC(0-inf) ([1]; Child-Pugh mild HI group),AUC(0-inf) ([1]; Child-Pugh moderate HI group),AUC(0-inf) ([1]; NCIc mild group),AUC(0-inf) ([1]; NCIc moderate group),AUC(0-inf) ([1]; NCIc normal group),"distribution of exposure (AUCinf, Cmax) across Child-Pugh classifications [1]",higher AUCinf compared with normal NCIc hepatic function ([1]; NCIc mild HI),AUC(0-inf) ([1]; Child-Pugh severe HI group),AUC(0-inf) ([1]; NCIc severe group),AUCinf in Child-Pugh mild HI compared with Child-Pugh normal ([1]; within subjects with normal NCI hepatic function),exposure (AUCinf and Cmax) of mild and moderate groups compared with normal hepatic function ([1]; based on either classification system (Child-Pugh or NCIc)),unbound AUCinf of mild group compared with normal hepatic function ([1]; via either classification (Child-Pugh or NCIc)),effect of HI on axitinib exposure (Cmax and AUCinf) versus normal ([2]; Child-Pugh mild HI),higher AUCinf (exposure) compared with normal ([2]; Child-Pugh moderate HI),"higher exposure compared with normal hepatic function [2, 3]","plasma elimination half-life compared with normal hepatic function [2, 3]","effect of HI on dacomitinib exposure versus normal [2, 4]",mean fraction unbound in plasma ([2]; across Child-Pugh hepatic function groups),"effect of HI on sunitinib exposure (AUCinf and Cmax) versus normal [2, 4]"
"CNC(=O)c1ccccc1Sc1ccc2c(/C=C/c3ccccn3)n[nH]c2c1 [Axitinib, axitinib]",122 ng·h/mL,304 ng·h/mL,210 ng·h/mL,410 ng·h/mL,137 ng·h/mL,appeared similar,,,,,,,did not affect,2 fold,,,,,
"COc1cc(Nc2c(C#N)cnc3cc(OCCCN4CCN(C)CC4)c(OC)cc23)c(Cl)cc1Cl [Bosutinib, bosutinib]",1940 ng·h/mL,1730 ng·h/mL,1580 ng·h/mL,1860 ng·h/mL,1130 ng·h/mL,higher exposure,40%,1660 ng·h/mL,1350 ng·h/mL,~2 fold,,,,,~2 fold,longer,,,
"COc1cc2ncnc(Nc3ccc(F)c(Cl)c3)c2cc1NC(=O)/C=C/CN1CCCCC1 [Dacomitinib, dacomitinib]",811 ng·h/mL,682 ng·h/mL,753 ng·h/mL,583 ng·h/mL,800 ng·h/mL,,,,685 ng·h/mL,,similar,,,,,,did not alter,,

# Further lines, with some results ahead:
AUC(0-inf) ([1]; Child-Pugh mild HI group),AUC(0-inf) ([1]; Child-Pugh moderate HI group),AUC(0-inf) ([1]; NCIc mild group),AUC(0-inf) ([1]; NCIc moderate group),AUC(0-inf) ([1]; NCIc normal group),"distribution of exposure (AUCinf, Cmax) across Child-Pugh classifications [1]",higher AUCinf compared with normal NCIc hepatic function ([1]; NCIc mild HI),AUC(0-inf) ([1]; Child-Pugh severe HI group),AUC(0-inf) ([1]; NCIc severe group),AUCinf in Child-Pugh mild HI compared with Child-Pugh normal ([1]; within subjects with normal NCI hepatic function),exposure (AUCinf and Cmax) of mild and moderate groups compared with normal hepatic function ([1]; based on either classification system (Child-Pugh or NCIc)),unbound AUCinf of mild group compared with normal hepatic function ([1]; via either classification (Child-Pugh or NCIc)),SMILES,effect of HI on axitinib exposure (Cmax and AUCinf) versus normal ([2]; Child-Pugh mild HI),higher AUCinf (exposure) compared with normal ([2]; Child-Pugh moderate HI),"higher exposure compared with normal hepatic function [2, 3]","plasma elimination half-life compared with normal hepatic function [2, 3]","effect of HI on dacomitinib exposure versus normal [2, 4]",mean fraction unbound in plasma ([2]; across Child-Pugh hepatic function groups),"effect of HI on sunitinib exposure (AUCinf and Cmax) versus normal [2, 4]"
,,,,,,,,,,,overall similar,"CC(=O)c1c(C)c2cnc(Nc3ccc(N4CCNCC4)cn3)nc2n(C2CCCC2)c1=O [Palbociclib, palbociclib]",,,,,,increased with worsening hepatic function,
1510 ng·h/mL,1480 ng·h/mL,1690 ng·h/mL,1530 ng·h/mL,1340 ng·h/mL,,,,,,,,"CCN(CC)CCNC(=O)c1c(C)[nH]c(/C=C2\C(=O)Nc3ccc(F)cc32)c1C [Sunitinib, sunitinib]",,,,,,,did not alter
